Reference: patent US5627173A, “Phosphonoacetic acid derivatives and their use for treating degenerative joint disorders” (Hoechst Aktiengesellschaft, priority 1995, dated 1997)
In brackets after ≈: the same amount, converted by molar mass.

Legend:
matrix metalloproteases = assay: Inhibition of matrix metalloproteases (MMP from rabbit synoviocytes HIG-82, fluorescent substrate); format: biochemical
Experimental: After confluent cell growth, the MMP expression was induced in the serum-free 3F12 HAM medium by adding 0.3 μmol/l phorbol 12-myristate 13-acetate. The supernatant was removed after incubating at 37° C. for 20 hours.
Activation of the MMP: The supernatant was activated with trypsin (5 μg/ml). After 15 minutes at 37° C., the activation was stopped by adding 1 mmol/l phenylmethylsulfonyl fluoride (PMSF) and incubating for a further 10 minutes. The total volume of the mixture was 210 μl.
The test substance was added in the stated concentration (see table). […] The reaction was stopped after 30 minutes by adding 10 mmol/l EDTA. The total-volume of the mixture was 320 μl . The parameters measured were the fluorescence intensities at […]. In order to take account of the possible intrinsic fluorescence of the test substances, the fluorescence intensities from parallel measurements without substrate were subtracted from the measurements with substrate. All the steps took place at 20° C.

interleukin-1β = assay: Inhibition of release of interleukin-1β from human mononuclear cells; format: cell-based; conditions: 10 .parallel.mol/l (so in the source), IL-1β, LPS-stimulated, 20 to 22 hours
Experimental: Obtaining mononuclear cells from human blood: 10 ml of human blood stabilized with 1 ml of 3.8 percent sodium citrate solution were diluted with 10 ml of PM16 (Serra, Heidelberg), and an underlayer of 15 ml of Lymphoprep (Dr. Molter GmbH, Heidelberg) was introduced. The samples were centrifuged at 400 x g (Minifuge 2 Heraeus, Osterode) at room temperature for 40 minutes. The mononuclear cells were visible as a white ring at the Lymphoprep/plasma boundary. This ring was cautiously removed with a syringe, diluted with the same volume of PM16 and centrifuged at 400 x g for 10 minutes. The precipitate was washed with ^~ 10 ml of RPMI1640 (+300 mg/I L-glutamine, Gibco, Eggenstein). After the cells had been suspended in ^~ 1 ml of RPMI1640 (+300 mg/I L-glutamine, +25 mM HEPES, +100 μg/ml streptomycin, +100 μg/ml penicillin), the cell density was determined with a JT Coulter Counter (Coulter Diagnostics) and adjusted to 5.10^6 /ml. 90% of the resulting cells were lymphocytes and 10% were monocytes.
Inhibition of release of interleukin-1β: 230 μl of mononuclear cells were incubated with 10 μl of test substance (10 μM in dimethyl sulfoxide (DMSO)/water=1/10) and 10 μl of a lipopolysaccharide solution (500 μg dissolved in 1 ml of DMSO and diluted 1/10 with water before starting the test, from Salmonella abortus equi, (Sigma, Deisenhofen) at 37° C., 5% CO2 for 20 to 22 hours. The samples were cooled to 0° C. in an ice bath and centrifuged in a Sigma centrifuge (2 minutes; 2000 revolutions per minute (rpm)). Aliquots of the supernatant were determined using a commercially available ELISA 5(Biermann, Bad Nauheim).
All active substances were tested at a concentration of 10 .parallel.mol/l. IL-1β release was tested in each case.

[1] = system: isolated strips of guinea pig lung; assay: Antagonism of PAF-induced contraction of isolated strips of guinea pig lung; conditions: Cavia porcellus; agonist PAF; read-out: Anticontractile effect (lung), concentration range corresponding to the IC50 value
Description: (§1) The test was based on the same principle as the test indicated in Pharmacological Test 5; however, strips of lung were used in this case.
(§2) The guinea pig was sacrificed under anesthesia with laughing gas. The entire lung tract was cut out starting from the trachea. The lobes of the lungs were cut in circular fashion to produce strips about 3 mm wide. The strips of the upper lobes were divided up in order to obtain a total of six strips of approximately equal size. The strips were suspended in the organ baths under a preload of 4 g. Modified Krebs-Henseleit solutions were used as nutrient solution. When platelet activating factor (PAF) was used as agonist, the composition of this solution corresponded to that for the agonist SP in Pharmacological Test 5; a Krebs-Henseleit solution as in the case of the agonist KCI (Pharm. Test 5) was used for the agonist LTD4. 95% by volume 02, 5% by volume CO2 was bubbled through the bath, and the bath temperature was 37° C. The test is carried out by a therapeutic/cumulative method with dose levels of 1, 3, 6 and 10 μg/ml.
(§3) The test animals, organ bath, vehicle, mode of administration corresponded to that stated for Pharmacological Test 5.

[2] = system: isolated strips of guinea pig lung; assay: Antagonism of LTD4-induced contraction of isolated strips of guinea pig lung; conditions: Cavia porcellus; agonist LTD4; read-out: Anticontractile effect (lung), concentration range corresponding to the IC50 value
Description: as §1, §2, §3

[3] = system: isolated guinea pig trachea; assay: Antagonism of substance P-induced contraction of the isolated guinea pig trachea; conditions: Cavia porcellus; agonist substance P; read-out: Anticontractile effect (trachea), concentration range needed to bring about a dilatation corresponding to the ED50 range
Description: (§4) The compounds according to the invention are used as antagonists of the contraction of various parts of organs, in this case the isolated guinea pig trachea. The agonists used were KCl, PGF2a, calcium ionophore A23187 and substance P:
Antagonism is possible on the one hand by specific receptor antagonists, and on the other hand by inhibition of the downstream signal pathway.
(§5) The guinea pigs were sacrificed by lethal anesthesia with laughing gas. The trachea was dissected out over its entire length and cut into 15 individual cartilage rings. In each case five rings were connected together to form a chain and fixed in an organ bath under a preload of 3 g. After an equilibration period of 45 minutes, a contraction was induced with the agonist. Cumulative addition of the antagonist (test product) took place at the plateau 5 of the maximum. Evaluation took place as % change in strength based on the maximum contraction. The test was carried out at 37° C., and the physiological nutrient solution used was a modified Krebs-Henseleit solution through which 95% by volume 02 and 5% by volume CO2 was bubbled.
(§6) Test animals: Albino guinea pigs (102), weight: 200 to 300 g, male or female
(§7) Composition of the organ bath (nutrient solution):
(§8) Vehicle: Double-distilled water, ethanol or isopropanol; Administration: into the organ bath Number of administrations: cumulative, single doses for SP

[4] = system: isolated guinea pig trachea; assay: Antagonism of KCl-induced contraction of the isolated guinea pig trachea; conditions: Cavia porcellus; agonist KCl; read-out: Anticontractile effect (trachea), concentration range needed to bring about a dilatation corresponding to the ED50 range
Description: as §4
Products with a non-specific effect generally show a spasmolytic effect with respect to all agonists. KCI is representative here of non-specific, receptor-independent contraction because KCl-induced contractions are produced predominantly physically, that is to say by increasing the K+ concentration in the outside medium, and change the resting potential of the cell.
as §5, §6, §7, §8

[5] = system: isolated guinea pig trachea; assay: Antagonism of PGF2α-induced contraction of the isolated guinea pig trachea; conditions: Cavia porcellus; agonist PGF2α; read-out: Anticontractile effect (trachea), concentration range needed to bring about a dilatation corresponding to the ED50 range
Description: as §4
Inhibition of contractions induced by this cyclooxygenase product is possible only by competitive antagonism at the receptor or of the downstream signal pathway.
as §5, §6, §7, §8

| SMILES | Inhibition of MMP, Inhibition (%) (matrix metalloproteases; 100 μM) | Inhibition of MMP, Inhibition (%) (matrix metalloproteases; 30 μM) | IC50 [2] [µg/mL] | also measured |
| --- | --- | --- | --- | --- |
| COc1ccc(C=C(C(=O)OC(C)C)P(=O)(O)O)cc1OC [Compound 50] | 14 | – | – | – |
| COc1cc(OC)c(OC)cc1C=C(C(=O)OC(C)C)P(=O)(OC)OC [Compound 35] | 52 | 21 | – | inhibition at 10 µM (interleukin-1β): 83% |
| COP(=O)(OC)C(=Cc1ccc(OCc2ccccc2)c(OCc2ccccc2)c1)C(=O)OC(C)C [Compound 27] | 48 | 24 | – | inhibition at 10 µM (interleukin-1β): 99% |
| CCOP(=O)(OCC)C(=Cc1c(OC)cccc1OC)C(=O)OC(C)C [Compound 48] | 26 | 9 | – | Inhibition of MMP, Inhibition (%) (matrix metalloproteases; 10 μM): 7% |
| COc1ccc(C=C(C(=O)OC(C)C)P(=O)(OC)OC)cc1OC1CCCC1 [Compound 21] | 51 | 19 | – | – |
| CCOP(=O)(OCC)C(=Cc1ccc(OC(C)=O)c(OC(C)=O)c1)C(=O)OC [Compound 49] | 28 | 8 | – | – |
| CCCCCCCCCCCCOc1cc(C=C(C#N)P(=O)(OCC)OCC)ccc1OC [Compound 1] | – | – | > 10 | IC50 [1]: 1 to 3 µg/mL (≈ 2.09 to 6.26 µM) |
| CCOP(=O)(OCC)C(Cc1ccc(OS(C)(=O)=O)c(OS(C)(=O)=O)c1)C(=O)OC(C)C (centres unmarked) [Compound 46] | – | – | ~10 (≈ 19.4 µM) | IC50 [1]: 1 to 3 µg/mL (≈ 1.94 to 5.81 µM) |
| COc1ccc(C=C(C(=O)OC(C)C)P(=O)(OC)OC)cc1OC [Compound 39] | 47 | 19 | ~10 (≈ 27.9 µM) | inhibition at 10 µM (interleukin-1β): 63%; Inhibition of MMP, Inhibition (%) (matrix metalloproteases; 10 μM): 16% |
| COP(=O)(OC)C(Cc1ccc(OCc2ccccc2)c(OCc2ccccc2)c1)C(=O)OC(C)C (centres unmarked) [Compound 25] | – | 24 | – | – |
| CC(C)OC(=O)C(=Cc1ccc(OCc2ccccc2)c(OCc2ccccc2)c1)P(=O)(O)O [Compound 51, Ammonium hydrogen 2-(3,4-dibenzyloxybenzylidene)-isopropoxycarbonylmethanephosphonate] | 14 | – | – | – |
| CCOP(=O)(OCC)C(C#N)Cc1ccc(OC)c(OC)c1 (centres unmarked) [Compound 34, 2-(diethoxyphosphinyl)-3-(3,4-dimethoxy-phenyl)propiononitrile] | – | – | – | EC50 [3]: 1 to 10 µg/mL (≈ 3.06 to 30.6 µM); EC50 [4]: > 10 µg/mL; EC50 [5]: > 10 µg/mL |
| COP(=O)(OC)C(=Cc1ccc2c(c1)OCO2)C(=O)OC(C)C [Compound 42] | – | – | > 10 | inhibition at 10 µM (interleukin-1β): 77%; IC50 [1]: 3 to 6 µg/mL (≈ 8.76 to 17.5 µM) |
| CCOP(=O)(OCC)C(C#N)=Cc1ccc2c(c1)OCCO2 [Compound 70] | – | – | ~6 (≈ 18.6 µM) | – |
